T1: G-CSF receptor (Mus musculus, UniProt P40223)
T1 construct: they express endogenous G-CSF receptors; endogenous in cells; host or cells: NFS60 murine myeloid cells carrying a G-CSF-responsive luciferase reporter
T1 sequence (P40223 26-837): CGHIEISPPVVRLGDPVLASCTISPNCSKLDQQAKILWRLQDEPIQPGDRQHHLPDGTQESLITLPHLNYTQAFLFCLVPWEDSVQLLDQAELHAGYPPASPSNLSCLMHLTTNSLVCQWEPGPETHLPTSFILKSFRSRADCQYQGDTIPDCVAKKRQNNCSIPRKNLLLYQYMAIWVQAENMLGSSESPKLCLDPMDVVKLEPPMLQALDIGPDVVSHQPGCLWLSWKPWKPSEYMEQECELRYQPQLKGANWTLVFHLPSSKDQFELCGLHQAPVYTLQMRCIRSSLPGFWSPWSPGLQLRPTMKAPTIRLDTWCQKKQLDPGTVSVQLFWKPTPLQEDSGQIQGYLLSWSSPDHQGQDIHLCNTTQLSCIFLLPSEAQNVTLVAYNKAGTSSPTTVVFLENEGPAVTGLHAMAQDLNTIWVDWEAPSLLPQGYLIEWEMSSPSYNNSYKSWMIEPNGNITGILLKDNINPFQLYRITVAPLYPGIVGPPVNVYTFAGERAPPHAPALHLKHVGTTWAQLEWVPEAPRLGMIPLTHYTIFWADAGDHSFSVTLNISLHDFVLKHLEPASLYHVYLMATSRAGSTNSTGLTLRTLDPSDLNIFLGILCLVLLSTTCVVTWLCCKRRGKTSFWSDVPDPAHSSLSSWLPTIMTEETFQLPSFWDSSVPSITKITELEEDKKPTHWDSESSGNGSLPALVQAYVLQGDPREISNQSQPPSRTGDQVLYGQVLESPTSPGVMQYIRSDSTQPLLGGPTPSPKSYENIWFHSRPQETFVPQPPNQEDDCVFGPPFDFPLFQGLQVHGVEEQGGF

T2: G-CSF/Fc fusion protein (Mus musculus, UniProt P40223)
T2 construct: which contained the extracellular domain of the receptor presented in a dimeric form due to the Fc component
T2 sequence (P40223 26-626 limits assumed): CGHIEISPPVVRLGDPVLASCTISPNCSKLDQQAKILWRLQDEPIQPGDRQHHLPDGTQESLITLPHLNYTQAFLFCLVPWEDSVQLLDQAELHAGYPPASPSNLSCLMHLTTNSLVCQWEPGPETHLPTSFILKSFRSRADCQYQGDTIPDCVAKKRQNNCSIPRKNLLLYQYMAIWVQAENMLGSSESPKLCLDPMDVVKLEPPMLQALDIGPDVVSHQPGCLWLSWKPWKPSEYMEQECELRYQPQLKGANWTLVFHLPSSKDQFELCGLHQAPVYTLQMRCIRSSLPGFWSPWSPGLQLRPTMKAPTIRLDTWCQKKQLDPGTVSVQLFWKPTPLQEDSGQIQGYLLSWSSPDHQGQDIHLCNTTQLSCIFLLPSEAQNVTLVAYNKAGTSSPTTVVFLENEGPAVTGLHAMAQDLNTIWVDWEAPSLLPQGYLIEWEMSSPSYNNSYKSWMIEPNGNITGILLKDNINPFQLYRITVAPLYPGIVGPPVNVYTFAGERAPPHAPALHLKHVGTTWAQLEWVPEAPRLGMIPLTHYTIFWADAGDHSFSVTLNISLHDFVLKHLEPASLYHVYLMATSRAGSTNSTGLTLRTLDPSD

B1: recombinant G-CSF: the natural ligand (i.e. G-CSF or recombinant G-CSF) (protein, UniProt P09919 31-207, looked up)
Granulocyte …: TPLGPASSLPQSFLLKCLEQVRKIQGDGAALQEKLVSECATYKLCHPEELVLLGHSLGIPWAPLSSCPSQALQLAGCLSQLHSGLFLYQGLLQALEGISPELGPTLDTLQLDVADFATTIWQQMEELGMAPALQPTQGAMPAFASAFQRRAGGVLVASHLQSFLEVSYRVLRHLAQP

Tests used:
[1] = target: T1, G-CSF receptor; test: Luciferase assay in the presence of EDTA (NFS60 cells); type: cell-based, murine
Experimental: FIG. 3 is an analysis of the effect of ethylenediaminetetraacetic acid (as used herein—EDTA) on the activity of Compound 1a (from Example 1) in NFS60 cells. Shown are luciferase response curves of Compound 1a at the indicated concentrations and in the presence of various concentrations of EDTA. […] The media in this assay contained a small amount (1-5 μM) of zinc(II).
FIGS. 7 and 8 show an analysis of the effect of metal chlorides on the EDTA depleted activity of Compound 1a on NFS60 cells. Shown are luciferase response curves as effected by the indicated metal chlorides. […] None of the other metals tested could overcome the inhibitory effect of EDTA.
In order to determine the requisiteness of zinc chelation of small organic molecules to agonist activity at dimeric cell-surface receptors, the above luciferase assay was performed on the G-CSF receptor in the presence of EDTA. EDTA is a strong metal chelator and had as its only effect, the removal of zinc from the ligand-receptor interaction.

[2] = target: T2, G-CSF/Fc fusion protein; test: Isothermal titration microcalorimetry; type: binding; settings: only in the presence of zinc
Experimental: Zinc-mediated affinity of compounds from this invention for dimeric cell-surface receptors (specifically the G-CSF receptor) was measured by isothermal titration microcalorimetry experiments. Titration microcalorimetry detects binding as heat originating from the intrinsic bond forming enthalpy change. In this assay, the compounds were titrated first against zinc(II) alone. In a separate experiment, the compounds were then assayed in the presence of zinc and a dimeric cell-surface receptor/Fc fusion protein (a G-CSF/Fc fusion protein), which contained the extracellular domain of the receptor presented in a dimeric form due to the Fc component.

Molecule	effect of metal chlorides on the EDTA depleted luciferase activity ([1]; 50 micromolar EDTA, metal chlorides (zinc, manganese, iron, copper, cobalt))	effect of EDTA on luciferase activity ([1]; EDTA at 1.2 millimolar, media contained 1-5 μM zinc(II))	agonist activity in the presence of EDTA ([1]; FIG. 3)	affinity for the fusion protein construct [2]	effect of EDTA on luciferase activity ([1]; EDTA at both 1.2 and 5 millimolar)
c1ccc(C23NC(=Nc4nc5ccccc5[nH]4)NC2(c2ccccn2)NC(=Nc2nc4ccccc4[nH]2)N3)nc1 (stereo not drawn) [Compound 1a, 2,5-Bis[2-benzimidazolylimino]-3a,6a-bis(2-pyridyl)-1,2,3,3a,4,5,6,6a-octahydroimidazo[4,5-d]imidazole]	Only zinc (II) at concentrations 0.5-10 micromolar can overcome the inhibition	antagonized	abrogated	high, submicromolar affinity	
Cc1ccc2nc(N=C3NC4(c5ccccn5)NC(=Nc5nc6ccccc6[nH]5)NC4(c4ccccn4)N3)[nH]c2c1.O=C(O)C(F)(F)F.O=C(O)C(F)(F)F (stereo not drawn) [Compound 3a, 5-(2-benzimidazolylimino)-2-[(5-methyl-2-benzimidazolyl)imino]-3a,6a-bis(2-pyridyl)-1,2,3,3a,4,5,6,6a-octahydroimidazo[4,5-d]imidazole bis(trifluoroacetate) salt]				high, submicromolar affinity	
B1					little effect

Source: US20010016568A1, “NOVEL METAL COMPLEXES” (priority 1997, published 2001)
